# Results as given in article PMC5362750, “Discovery of Potent, Selective, and Orally Bioavailable Small-Molecule Modulators of the Mediator Complex-Associated Kinases CDK8 and CDK19” (Journal of Medicinal Chemistry, 2016).
# How the values were obtained:
# [1] = molecular target: T1, NEK6 (Homo sapiens, UniProt Q9HC98); experiment: Kinase panel (Millipore); format: biochemical; conditions: 1 µM, ATP at Km
# T1 construct: purchased Millipore (KinaseProfiler) kinase panel
# [2] = molecular target: ABL (Homo sapiens, UniProt P00519); experiment: Kinase panel (Millipore); format: biochemical; conditions: 1 µM, ATP at Km
# [3] = molecular target: alpha 2C (h) (Homo sapiens, UniProt P18825); experiment: biochemical; conditions: read-out: % Inhibition of Control Specific Binding
# [4] = molecular target: T2, EPHB3 (Homo sapiens, UniProt P54753); experiment: Kinase panel (Millipore); format: biochemical; conditions: 1 µM, ATP at Km
# T2 construct: purchased Millipore (KinaseProfiler) kinase panel
# [5] = molecular target: T3, EPHA7 (Homo sapiens, UniProt Q15375); experiment: Kinase panel (Millipore); format: biochemical; conditions: 1 µM, ATP at Km
# T3 construct: purchased Millipore (KinaseProfiler) kinase panel
# T3 sequence (Q15375 28-998): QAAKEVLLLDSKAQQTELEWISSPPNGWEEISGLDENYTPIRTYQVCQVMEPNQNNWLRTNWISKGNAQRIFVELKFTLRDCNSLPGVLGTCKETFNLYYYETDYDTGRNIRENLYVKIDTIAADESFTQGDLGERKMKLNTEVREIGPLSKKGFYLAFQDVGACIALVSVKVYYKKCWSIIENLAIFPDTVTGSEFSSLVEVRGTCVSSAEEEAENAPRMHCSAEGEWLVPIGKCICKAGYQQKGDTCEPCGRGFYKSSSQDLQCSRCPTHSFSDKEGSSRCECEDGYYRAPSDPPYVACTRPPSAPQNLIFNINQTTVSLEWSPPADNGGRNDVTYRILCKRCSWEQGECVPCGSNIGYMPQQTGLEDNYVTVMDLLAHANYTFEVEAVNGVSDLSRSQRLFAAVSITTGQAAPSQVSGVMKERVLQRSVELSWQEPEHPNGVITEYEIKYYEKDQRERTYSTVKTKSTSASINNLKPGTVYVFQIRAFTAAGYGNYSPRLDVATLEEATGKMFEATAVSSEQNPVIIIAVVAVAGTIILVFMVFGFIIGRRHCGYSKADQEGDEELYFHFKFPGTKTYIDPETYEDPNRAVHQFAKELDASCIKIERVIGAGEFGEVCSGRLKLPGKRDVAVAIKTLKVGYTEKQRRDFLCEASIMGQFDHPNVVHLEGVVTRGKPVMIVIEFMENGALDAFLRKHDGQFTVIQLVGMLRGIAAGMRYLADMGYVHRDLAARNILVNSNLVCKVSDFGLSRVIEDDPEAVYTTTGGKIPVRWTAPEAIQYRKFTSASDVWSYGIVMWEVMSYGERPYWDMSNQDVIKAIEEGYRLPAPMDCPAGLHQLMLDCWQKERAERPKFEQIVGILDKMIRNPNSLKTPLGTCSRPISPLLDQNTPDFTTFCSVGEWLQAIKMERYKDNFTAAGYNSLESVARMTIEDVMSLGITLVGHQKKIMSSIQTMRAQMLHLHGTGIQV
# [6] = molecular target: T4, EPHB4 (Homo sapiens, UniProt P54760); experiment: Kinase panel (Millipore); format: biochemical; conditions: 1 µM, ATP at Km
# T4 construct: purchased Millipore (KinaseProfiler) kinase panel
# [7] = molecular target: EGFR (Homo sapiens, UniProt P00533); experiment: Kinase panel (Millipore); format: biochemical; conditions: 1 µM, ATP at Km
# [8] = molecular target: T5, ALK (Homo sapiens, UniProt Q9UM73); experiment: Kinase panel (Millipore); format: biochemical; conditions: 1 µM, ATP at Km
# T5 construct: purchased Millipore (KinaseProfiler) kinase panel
# T5 sequence (Q9UM73 19-1620): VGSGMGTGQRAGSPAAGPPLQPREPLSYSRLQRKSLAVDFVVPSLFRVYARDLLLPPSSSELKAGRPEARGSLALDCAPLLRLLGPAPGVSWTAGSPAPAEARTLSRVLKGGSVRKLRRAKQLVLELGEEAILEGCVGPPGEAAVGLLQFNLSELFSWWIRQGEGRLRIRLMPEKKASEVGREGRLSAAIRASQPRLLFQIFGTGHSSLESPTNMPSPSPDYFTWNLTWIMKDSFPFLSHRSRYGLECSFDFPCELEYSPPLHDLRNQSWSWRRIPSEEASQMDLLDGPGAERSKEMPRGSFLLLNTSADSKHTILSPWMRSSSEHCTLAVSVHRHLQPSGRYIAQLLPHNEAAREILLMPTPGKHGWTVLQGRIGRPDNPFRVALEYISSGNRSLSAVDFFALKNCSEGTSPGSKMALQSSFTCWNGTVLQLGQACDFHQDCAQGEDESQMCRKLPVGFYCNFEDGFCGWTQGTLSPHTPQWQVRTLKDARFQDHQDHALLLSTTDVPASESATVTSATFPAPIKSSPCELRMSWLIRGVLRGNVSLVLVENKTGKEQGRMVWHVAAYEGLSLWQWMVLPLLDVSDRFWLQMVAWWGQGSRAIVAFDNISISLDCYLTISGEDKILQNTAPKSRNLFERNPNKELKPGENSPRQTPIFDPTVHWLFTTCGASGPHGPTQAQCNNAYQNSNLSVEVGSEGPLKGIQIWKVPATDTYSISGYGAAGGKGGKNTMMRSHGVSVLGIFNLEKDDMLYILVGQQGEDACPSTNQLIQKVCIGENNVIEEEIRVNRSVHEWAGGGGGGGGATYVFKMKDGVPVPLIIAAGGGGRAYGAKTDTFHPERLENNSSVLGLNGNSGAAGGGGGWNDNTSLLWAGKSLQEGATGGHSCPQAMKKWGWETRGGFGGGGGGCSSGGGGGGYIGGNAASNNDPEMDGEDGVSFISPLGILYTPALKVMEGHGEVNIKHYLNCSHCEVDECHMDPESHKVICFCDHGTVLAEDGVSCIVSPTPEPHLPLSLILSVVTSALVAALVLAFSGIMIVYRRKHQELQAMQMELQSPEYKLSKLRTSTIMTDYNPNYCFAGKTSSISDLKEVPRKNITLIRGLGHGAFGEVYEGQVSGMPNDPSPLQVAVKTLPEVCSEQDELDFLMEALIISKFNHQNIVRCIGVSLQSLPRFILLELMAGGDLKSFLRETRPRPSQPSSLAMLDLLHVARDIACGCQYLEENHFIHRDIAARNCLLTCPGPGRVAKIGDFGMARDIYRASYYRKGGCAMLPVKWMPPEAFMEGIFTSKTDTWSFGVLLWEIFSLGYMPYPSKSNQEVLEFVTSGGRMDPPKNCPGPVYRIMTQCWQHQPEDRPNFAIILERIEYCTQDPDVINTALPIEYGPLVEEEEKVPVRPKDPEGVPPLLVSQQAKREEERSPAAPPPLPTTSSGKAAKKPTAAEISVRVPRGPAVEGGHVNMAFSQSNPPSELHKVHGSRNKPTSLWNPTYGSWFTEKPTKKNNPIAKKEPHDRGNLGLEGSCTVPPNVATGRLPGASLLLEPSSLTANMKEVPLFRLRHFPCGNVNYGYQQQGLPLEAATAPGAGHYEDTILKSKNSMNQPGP
# [9] = molecular target: T6, FGFR1 (Homo sapiens, UniProt P11362); experiment: Kinase panel (Millipore); format: biochemical; conditions: 1 µM, ATP at Km
# T6 construct: purchased Millipore (KinaseProfiler) kinase panel
# [10] = molecular target: GRK7 (Homo sapiens, UniProt Q8WTQ7); experiment: Kinase panel (Millipore); format: biochemical; conditions: 1 µM, ATP at Km
# [11] = molecular target: T7, PAK2 (Homo sapiens, UniProt Q13177); experiment: Kinase panel (Millipore); format: biochemical; conditions: 1 µM, ATP at Km
# T7 construct: purchased Millipore (KinaseProfiler) kinase panel
# [12] = in vivo; conditions: female, NMRI, mouse, po, 0.5 mg/kg
# [13] = molecular target: T8, EPHA8 (Homo sapiens, UniProt P29322); experiment: Kinase panel (Millipore); format: biochemical; conditions: 1 µM, ATP at Km
# T8 construct: purchased Millipore (KinaseProfiler) kinase panel
# [14] = molecular target: T9, MAPKAP-K2 (Homo sapiens, UniProt P49137); experiment: Kinase panel (Millipore); format: biochemical; conditions: 1 µM, ATP at Km
# T9 construct: purchased Millipore (KinaseProfiler) kinase panel
# [15] = molecular target: T10, MSSK1 (Homo sapiens, UniProt Q9UPE1); experiment: Kinase panel (Millipore); format: biochemical; conditions: 1 µM, ATP at Km
# T10 construct: purchased Millipore (KinaseProfiler) kinase panel
# T10 sequence (Q9UPE1 whole entry): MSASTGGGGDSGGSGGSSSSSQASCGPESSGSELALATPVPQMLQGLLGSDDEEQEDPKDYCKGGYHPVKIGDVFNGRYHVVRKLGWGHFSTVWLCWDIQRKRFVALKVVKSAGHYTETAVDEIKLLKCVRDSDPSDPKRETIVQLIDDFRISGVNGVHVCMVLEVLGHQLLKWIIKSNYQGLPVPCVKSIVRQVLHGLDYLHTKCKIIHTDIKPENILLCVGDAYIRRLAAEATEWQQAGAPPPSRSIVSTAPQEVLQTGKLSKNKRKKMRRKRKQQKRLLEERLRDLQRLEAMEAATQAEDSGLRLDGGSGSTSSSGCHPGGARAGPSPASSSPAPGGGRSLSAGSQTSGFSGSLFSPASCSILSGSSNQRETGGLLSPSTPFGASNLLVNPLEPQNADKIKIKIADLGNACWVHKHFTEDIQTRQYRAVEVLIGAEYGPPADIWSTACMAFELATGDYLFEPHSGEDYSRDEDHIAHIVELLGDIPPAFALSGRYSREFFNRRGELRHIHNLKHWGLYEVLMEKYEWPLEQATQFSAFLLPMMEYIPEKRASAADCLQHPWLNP
# [16] = molecular target: T11, SGK (Homo sapiens, UniProt O00141); experiment: Kinase panel (Millipore); format: biochemical; conditions: 1 µM, ATP at Km
# T11 construct: purchased Millipore (KinaseProfiler) kinase panel
# [17] = molecular target: CLK2 (Homo sapiens, UniProt P49760); experiment: Kinase panel (Millipore); format: biochemical; conditions: 1 µM, ATP at Km
# Sequence of CLK2 (P49760 whole entry): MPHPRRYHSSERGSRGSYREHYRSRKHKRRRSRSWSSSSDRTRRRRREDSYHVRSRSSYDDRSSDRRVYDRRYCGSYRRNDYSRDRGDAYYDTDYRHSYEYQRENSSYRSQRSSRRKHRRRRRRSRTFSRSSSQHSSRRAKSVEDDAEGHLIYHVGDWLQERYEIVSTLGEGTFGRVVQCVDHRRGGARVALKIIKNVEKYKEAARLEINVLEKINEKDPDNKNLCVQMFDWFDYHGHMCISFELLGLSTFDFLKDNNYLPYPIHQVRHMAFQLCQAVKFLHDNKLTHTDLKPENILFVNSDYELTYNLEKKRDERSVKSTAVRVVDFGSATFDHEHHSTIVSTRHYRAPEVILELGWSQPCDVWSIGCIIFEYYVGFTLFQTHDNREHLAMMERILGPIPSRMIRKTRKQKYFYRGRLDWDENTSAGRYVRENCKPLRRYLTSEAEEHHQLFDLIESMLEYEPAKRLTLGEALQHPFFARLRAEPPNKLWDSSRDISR
# [18] = molecular target: ABL(T315I) (Homo sapiens, UniProt P00519, T315I); conditions: 1 µM, ATP at Km
# [19] = molecular target: SAPK4 (Homo sapiens, UniProt O15264); experiment: Kinase panel (Millipore); format: biochemical; conditions: 1 µM, ATP at Km
# [20] = molecular target: T12, SNK (Homo sapiens, UniProt Q9NYY3); experiment: Kinase panel (Millipore); format: biochemical; conditions: 1 µM, ATP at Km
# T12 construct: purchased Millipore (KinaseProfiler) kinase panel
# [21] = molecular target: T13, PDGFRALPHA (Homo sapiens, UniProt P16234); experiment: Kinase panel (Millipore); format: biochemical; conditions: 1 µM, ATP at Km
# T13 construct: purchased Millipore (KinaseProfiler) kinase panel
# [22] = molecular target: T14, ACK1 (Homo sapiens, UniProt Q07912); experiment: Kinase panel (Millipore); format: biochemical; conditions: 1 µM, ATP at Km
# T14 construct: purchased Millipore (KinaseProfiler) kinase panel
# [23] = molecular target: T15, TRKB (Homo sapiens, UniProt Q16620); experiment: Kinase panel (Millipore); format: biochemical; conditions: 1 µM, ATP at Km
# T15 construct: purchased Millipore (KinaseProfiler) kinase panel
# [24] = molecular target: CAMKIIBETA (Homo sapiens, UniProt Q13554); experiment: Kinase panel (Millipore); format: biochemical; conditions: 1 µM, ATP at Km
# [25] = molecular target: T16, TIE2 (Homo sapiens, UniProt Q02763); experiment: Kinase panel (Millipore); format: biochemical; conditions: 1 µM, ATP at Km
# T16 construct: purchased Millipore (KinaseProfiler) kinase panel
# [26] = molecular target: T17, ULK2 (Homo sapiens, UniProt Q8IYT8); experiment: Kinase panel (Millipore); format: biochemical; conditions: 1 µM, ATP at Km
# T17 construct: purchased Millipore (KinaseProfiler) kinase panel
# [27] = test system: STAT1^SER727 phosphorylation; conditions: 30 mg/kg q.d. oral
# [28] = molecular target: T18, MNK2 (Homo sapiens, UniProt Q9HBH9); experiment: Kinase panel (Millipore); format: biochemical; conditions: 1 µM, ATP at Km
# T18 construct: purchased Millipore (KinaseProfiler) kinase panel
# [29] = molecular target: T19, MC3 (h) (Homo sapiens, UniProt P41968); experiment: CEREP binding assay; conditions: agonist radioligand, read-out: % Inhibition of Control Specific Binding
# T19 construct: purchased Millipore (KinaseProfiler) kinase panel
# [30] = molecular target: T20, BB3 (h) (Homo sapiens, UniProt P32247); experiment: CEREP binding assay; conditions: agonist radioligand, read-out: % Inhibition of Control Specific Binding
# T20 construct: purchased Millipore (KinaseProfiler) kinase panel
# T20 sequence (P32247 whole entry): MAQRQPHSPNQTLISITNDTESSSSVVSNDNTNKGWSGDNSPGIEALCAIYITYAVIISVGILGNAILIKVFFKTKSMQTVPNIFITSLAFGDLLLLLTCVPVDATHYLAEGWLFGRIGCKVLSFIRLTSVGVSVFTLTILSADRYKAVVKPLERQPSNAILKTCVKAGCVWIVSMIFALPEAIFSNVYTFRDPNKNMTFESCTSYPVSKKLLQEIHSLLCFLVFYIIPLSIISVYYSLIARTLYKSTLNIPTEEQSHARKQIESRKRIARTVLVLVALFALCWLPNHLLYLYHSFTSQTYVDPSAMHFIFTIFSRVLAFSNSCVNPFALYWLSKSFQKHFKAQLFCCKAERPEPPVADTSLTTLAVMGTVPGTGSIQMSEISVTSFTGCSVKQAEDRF
# [31] = molecular target: T21, RET (Homo sapiens, UniProt P07949); experiment: Kinase panel (Millipore); format: biochemical; conditions: 1 µM, ATP at Km
# T21 construct: purchased Millipore (KinaseProfiler) kinase panel
# [32] = molecular target: CK2ALPHA2 (Homo sapiens, UniProt P19784); conditions: 1 µM, ATP at Km
# Sequence of CK2ALPHA2 (P19784 whole entry): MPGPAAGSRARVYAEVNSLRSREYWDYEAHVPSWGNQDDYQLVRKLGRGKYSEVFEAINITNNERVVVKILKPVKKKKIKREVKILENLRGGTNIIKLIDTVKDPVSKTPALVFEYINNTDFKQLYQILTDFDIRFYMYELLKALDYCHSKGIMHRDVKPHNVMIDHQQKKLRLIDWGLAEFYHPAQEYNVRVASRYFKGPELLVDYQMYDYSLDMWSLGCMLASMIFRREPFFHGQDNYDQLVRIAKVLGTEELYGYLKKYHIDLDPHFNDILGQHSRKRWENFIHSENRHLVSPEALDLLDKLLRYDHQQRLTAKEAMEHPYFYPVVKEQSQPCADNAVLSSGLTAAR
# [33] = test system: PCP; conditions: 10 µM, antagonist radioligand
# [34] = molecular target: T22, GCK (Homo sapiens, UniProt Q12851); experiment: Kinase panel (Millipore); format: biochemical; conditions: 1 µM, ATP at Km
# T22 construct: purchased Millipore (KinaseProfiler) kinase panel
# [35] = molecular target: T23, FP (h) (Homo sapiens, UniProt P43088); experiment: CEREP binding assay; conditions: agonist radioligand, read-out: % Inhibition of Control Specific Binding
# T23 construct: purchased Millipore (KinaseProfiler) kinase panel
# [36] = molecular target: RSK2 (Homo sapiens, UniProt P51812); experiment: Kinase panel (Millipore); format: biochemical; conditions: 1 µM, ATP at Km
# [37] = molecular target: SAPK2B (Homo sapiens, UniProt Q15759); experiment: Kinase panel (Millipore); format: biochemical; conditions: 1 µM, ATP at Km
# [38] = molecular target: TIE2(R849W) (Homo sapiens, UniProt Q02763, R849W); conditions: 1 µM, ATP at Km
# [39] = molecular target: ROCK-I (Homo sapiens, UniProt Q13464); experiment: Kinase panel (Millipore); format: biochemical; conditions: 1 µM, ATP at Km
# [40] = molecular target: alpha 1B (h) (Homo sapiens, UniProt P35368); experiment: biochemical; conditions: read-out: % Inhibition of Control Specific Binding
# [41] = molecular target: CK1GAMMA2 (Homo sapiens, UniProt P78368); experiment: Kinase panel (Millipore); format: biochemical; conditions: 1 µM, ATP at Km
# [42] = molecular target: T24, SGK3 (Homo sapiens, UniProt Q96BR1); experiment: Kinase panel (Millipore); format: biochemical; conditions: 1 µM, ATP at Km
# T24 construct: purchased Millipore (KinaseProfiler) kinase panel
# T24 sequence (Q96BR1 whole entry): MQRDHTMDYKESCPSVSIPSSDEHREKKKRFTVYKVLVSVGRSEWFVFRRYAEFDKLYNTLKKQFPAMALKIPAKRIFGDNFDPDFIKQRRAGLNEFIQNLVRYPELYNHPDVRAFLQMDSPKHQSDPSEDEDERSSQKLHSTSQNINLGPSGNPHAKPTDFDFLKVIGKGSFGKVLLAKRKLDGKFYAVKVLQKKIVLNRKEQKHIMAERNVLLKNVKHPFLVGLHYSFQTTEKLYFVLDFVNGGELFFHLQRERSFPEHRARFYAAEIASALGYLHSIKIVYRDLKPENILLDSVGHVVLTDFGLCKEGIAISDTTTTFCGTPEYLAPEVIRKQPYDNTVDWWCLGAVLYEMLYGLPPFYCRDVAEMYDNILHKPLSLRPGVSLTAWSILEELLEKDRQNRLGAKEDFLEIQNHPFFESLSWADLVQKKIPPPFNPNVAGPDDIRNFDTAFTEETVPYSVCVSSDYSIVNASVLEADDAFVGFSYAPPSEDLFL
# [43] = molecular target: A2B (h) (Homo sapiens, UniProt P29275); experiment: biochemical; conditions: read-out: % Inhibition of Control Specific Binding
smiles,measurement,setting,value
"Cn1ncc2cc(-c3cnc(N)c(Cl)c3N3CCC4(CCNC4=O)CC3)ccc21 [Compound 109, 8-(2-Amino-3-chloro-5-(1-methyl-1H-indazol-5-yl)pyridin-4-yl)-2,8-diazaspiro[4.5]decan-1-one]",% effect,[1],4%
same,% effect,[2],-15%
same,inhibition at 10 µM,[3],25%
same,% effect,[4],5%
same,% effect,[5],13%
same,% effect,[6],-3%
same,% effect,[7],4%
same,% effect,[8],4%
same,% effect,[9],7%
same,% effect,[10],-1%
same,% effect,[11],-10%
same,bioavailability,[12],30%
same,% effect,[13],-9%
same,% effect,[14],1%
same,% effect,[15],-1%
same,% effect,[16],0%
same,% effect,[17],-2%
same,% effect,[18],4%
same,% effect,[19],-1%
same,% effect,[20],11%
same,% effect,[21],10%
same,% effect,[22],-11%
same,% effect,[23],-11%
same,% effect,[24],19%
same,% effect,[25],14%
same,% effect,[26],12%
same,duration of reduced STAT1 SER727 phosphorylation after the last dose,[27],more than 6 h
same,% effect,[28],-3%
same,inhibition at 10 µM,[29],-24%
same,inhibition at 10 µM,[30],-11%
same,% effect,[31],7%
same,% effect,[32],-13%
same,% Inhibition of Control Specific Binding,[33],-1%
same,% effect,[34],-10%
same,inhibition at 10 µM,[35],-1%
same,% effect,[36],-11%
same,% effect,[37],-3%
same,% effect,[38],-9%
same,% effect,[39],6%
same,inhibition at 10 µM,[40],15%
same,% effect,[41],5%
same,% effect,[42],13%
same,inhibition at 10 µM,[43],-7%
